Test results taken from patent US20260256962A1, “PRODRUGS FOR COMPOUNDS SPECIFIC TO GRANZYME B AND USES THEREOF” (CYTOSITE BIOPHARMA INC., priority 2021, published 2026).

How the values were obtained:
granzyme B = target: T1, granzyme B (Homo sapiens, UniProt P10144); assay: In vivo PET/CT imaging of ^18F-granzyme B tracers in Matrigel mouse model of active and pro-form granzyme B; parameters: species or system female nude athymic mice; conditions: nude athymic mice, i.v. radiotracer, static PET 75 minutes post-injection
T1 construct: In Vivo Imaging of ^18F-Granzyme B Tracers in a Matrigel Mouse Model of Active and Pro-Form Granzyme B; purchased Enzo Life Sciences; host or cells: purified from human lymphocytes
T1 sequence (P10144 21-247): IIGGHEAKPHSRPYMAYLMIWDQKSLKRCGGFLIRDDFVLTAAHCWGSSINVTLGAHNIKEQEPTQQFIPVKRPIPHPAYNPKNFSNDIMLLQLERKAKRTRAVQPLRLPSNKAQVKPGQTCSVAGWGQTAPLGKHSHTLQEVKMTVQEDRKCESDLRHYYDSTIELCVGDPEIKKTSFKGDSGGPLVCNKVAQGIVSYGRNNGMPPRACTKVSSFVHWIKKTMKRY
Method: Female nude athymic (5-6 weeks, 15-30 g) mice were purchased from Jackson Laboratories. Both granzyme B (Human lymphocytes, Enzo Life Sciences) and inactivated human pro-form granzyme B (R&D Systems) were also commercially purchased. […] Each granzyme B enzyme were then brought up to a final concentration of 0.05 μg/ul using phosphate buffered saline (GE, Hyclone). Matrigel (65 μl, Corning) was mixed with 15 μl of 0.75 μg of each granzyme B enzyme (granzyme B and pro-form granzyme B) within each Eppendorf tube. The mice were then anesthetized with 2.5-3% isoflurane mixed with oxygen. Approximately 60-80 μl of granzyme B/Matrigel or the pro-form granzyme B/Matrigel were then injected using a 28-gauge×0.5-inch insulin syringe (Terumo) to form implants on the right and left shoulder flanks of the mice. […] After the radiotracer injection, the catheter was removed and measured for any remaining residual radioactivity. […] PET signal in the granzyme B implants were quantified by manually drawing regions of interest (ROIs) over the Matrigel implants based on the fused PET/CT images and the corresponding activity values were determined with VivoQuant (Invicro, Massachusetts). […] Target to background ratios (TBR's) were then calculated by dividing the granzyme B % ID/g value by the pro-form granzyme B % ID/g value.

[1] = In vivo conversion of [^18F] granzyme B prodrugs to active form, radioactive metabolite screening of blood by radio-HPLC; parameters: species or system male CD-1 mice; conditions: for conversion to the active form: in vivo, mouse plasma 5 minutes after administration (FIGS. 4C, 5C); for 5 min (% active form in blood) / 15 min (% active form in blood): male CD-1 mice, tail vein injection, radio-HPLC; for 5 min (% active form in blood): blood 5 minutes post-injection; for 15 min (% active form in blood): blood 15 minutes post-injection
Source text: In vivo conversion of prodrugs was monitored by radioactive metabolite screening studies performed by injection of [^18F] granzyme B tracers in male CD-1 mice followed by analysis of extracted blood samples by radiometric HPLC. Results are reported as percent active form present in blood (Table 11).
Briefly, male CD-1 mice were anesthetized prior to dosing with approximately 250 μCi [^18F] granzyme B tracer via tail vein injection (n=3 mice/timepoint). For blood collection, mice were sacrificed following cardiac exsanguination with a syringe pre-rinsed with sodium heparin at 5 and 15 minutes post-injection and samples were prepared for analysis via radio-HPLC.
Blood samples were centrifuged at 1500 RCF for 5 minutes to allow for separation of plasma. Plasma samples were mixed with two volumes of methanol, vortexed for 30 seconds, and then centrifuged at 1500 RCF for 2 minutes. The supernatant was separated from the pellet and diluted 1:4 with PBS buffer pH 7.4 or water prior to analysis by HPLC.
Samples were then analyzed on an Agilent 1290 series UPLC UV coupled with a BGO coincidence detector. The HPLC method utilized 2) Phenomenex Monolithic C18 (100×4.6 mm); 100-200 μL injection volume; flow-rate: 1.2 mL/min; solvent for A: 20 mM ammonium acetate in water; solvent for B: 100% methanol; gradient: initial hold at 5% B hold for 1 min, 5% to 40% in 7 min, hold 40% B for 2 min, increase from 40% to 95% B in 1 min, hold 95% B for 2 min, and then return to 5% B to reequilibrate.

CC[C@H](C)[C@H](NC(=O)CCNC(=O)CCNC(=O)[C@@H](CCC(=O)O)NC(=O)CN1CCC(CN2CCN3CCN(CC2)CC(=O)[O][Al]([F])[O]C(=O)C3)CC1)C(=O)N[C@H]1CCc2cccc3c2N(C1=O)[C@H](C(=O)N[C@H]1CC(=O)O[C@@H]1OC)C3 [[^18F] 3-Al]
differentiation in Matrigel (granzyme B vs pro-form granzyme B implants) (granzyme B): poor differentiation in Matrigel | conversion to the active form [1]: slow conversion to the active form | 5 min (% active form in blood) [1]: 13% | 15 min (% active form in blood) [1]: 17%

CC[C@H](C)[C@H](NC(=O)COCCNC(=O)[C@@H](CCC(=O)O)NC(=O)[C@@H](CCC(=O)O)NC(=O)CN1CCC(CN2CCN3CCN(CC2)CC(=O)[O][Al]([F])[O]C(=O)C3)CC1)C(=O)N[C@H]1CCc2cccc3c2N(C1=O)[C@H](C(=O)N[C@H]1CC(=O)O[C@@H]1OC)C3 [[^18F] 6-Al]
5 min (% active form in blood) [1]: 11% | 15 min (% active form in blood) [1]: 16%

CCO[C@@H]1OC(=O)C[C@@H]1NC(=O)[C@@H]1Cc2cccc3c2N1C(=O)[C@@H](NC(=O)[C@@H](NC(=O)CCNC(=O)CCNC(=O)[C@@H](CCC(=O)O)NC(=O)CN1CCC(CN2CCN4CCN(CC2)CC(=O)[O][Al]([F])[O]C(=O)C4)CC1)[C@@H](C)CC)CC3 [[^18F] 5-Al]
5 min (% active form in blood) [1]: 98% | 15 min (% active form in blood) [1]: 100%

CC[C@H](C)[C@H](NC(=O)CCNC(=O)CCNC(=O)[C@@H](CCC(=O)O)NC(=O)CN1CCC(CN2CCN3CCN(CC2)CC(=O)[O][Al]([F])[O]C(=O)C3)CC1)C(=O)N[C@H]1CCc2cccc3c2N(C1=O)[C@H](C(=O)N[C@H]1CC(=O)O[C@H]1OC)C3 [[^18F] 4-Al]
differentiation in Matrigel (granzyme B vs pro-form granzyme B implants) (granzyme B): good differentiation in Matrigel | conversion to the active form [1]: rapid conversion to the active form | 5 min (% active form in blood) [1]: 92% | 15 min (% active form in blood) [1]: 94%

CCO[C@@H]1OC(=O)C[C@@H]1NC(=O)[C@@H]1Cc2cccc3c2N1C(=O)[C@@H](NC(=O)[C@@H](NC(=O)COCCNC(=O)[C@@H](CCC(=O)O)NC(=O)[C@@H](CCC(=O)O)NC(=O)CN1CCC(CN2CCN4CCN(CC2)CC(=O)[O][Al]([F])[O]C(=O)C4)CC1)[C@@H](C)CC)CC3 [[^18F] 8-Al]
5 min (% active form in blood) [1]: 86% | 15 min (% active form in blood) [1]: 100%

CC[C@H](C)[C@H](NC(=O)COCCNC(=O)[C@@H](CCC(=O)O)NC(=O)[C@@H](CCC(=O)O)NC(=O)CN1CCC(CN2CCN3CCN(CC2)CC(=O)[O][Al]([F])[O]C(=O)C3)CC1)C(=O)N[C@H]1CCc2cccc3c2N(C1=O)[C@H](C(=O)N[C@H]1CC(=O)O[C@H]1OC)C3 [[^18F] 7-Al]
5 min (% active form in blood) [1]: 69% | 15 min (% active form in blood) [1]: 78%

CC[C@H](C)[C@H](NC(=O)CCNC(=O)CCNC(=O)CN(CC(=O)O)C(=O)CN1CCC(CN2CCN3CCN(CC2)CC(=O)[O][Al]([F])[O]C(=O)C3)CC1)C(=O)N[C@H]1CCc2cccc3c2N(C1=O)[C@H](C(=O)N[C@H]1CC(=O)O[C@H]1OC)C3 [[^18F] 9-Al]
5 min (% active form in blood) [1]: 90% | 15 min (% active form in blood) [1]: 100%
